Experimental data: article PMC5838249, “The Apicomplexa-specific glucosamine-6-phosphate N-acetyltransferase gene family encodes a key enzyme for glycoconjugate synthesis with potential as therapeutic target” (Scientific Reports, 2018)

Assays:
PfGNA1 = target: T1, PfGNA1 (Plasmodium falciparum, UniProt C6KTC5); assay: HPLC-MS/MS GNA1 assay; assay type: biochemical; conditions: 500 µM AcCoA, 500 µM GlcN-6P, 25 mM Tris-HCl, 150 mM NaCl, pH 7.2, room temperature
T1 construct: gene PF3D7_0629000; deficiently expressed
T1 sequence (C6KTC5 1-291): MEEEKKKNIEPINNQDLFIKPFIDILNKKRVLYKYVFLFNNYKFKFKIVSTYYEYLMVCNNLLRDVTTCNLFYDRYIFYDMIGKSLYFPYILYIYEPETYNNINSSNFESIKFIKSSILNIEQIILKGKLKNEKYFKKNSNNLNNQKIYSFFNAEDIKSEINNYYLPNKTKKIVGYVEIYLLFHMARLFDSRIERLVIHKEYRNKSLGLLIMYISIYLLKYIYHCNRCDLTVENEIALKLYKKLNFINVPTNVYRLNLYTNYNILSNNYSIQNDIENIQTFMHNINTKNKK

TgGNA1 = target: T2, TgGNA1 (Toxoplasma gondii, UniProt A0A7J6K6Y4); assay: HPLC-MS/MS and colorimetric GNA1 assay; assay type: biochemical; conditions: […] AcCoA, […] GlcN-6P, […] Tris-HCl, […] NaCl, pH […], room temperature
T2 construct: gene TGRH88_028800
T2 sequence (A0A7J6K6Y4 1-516): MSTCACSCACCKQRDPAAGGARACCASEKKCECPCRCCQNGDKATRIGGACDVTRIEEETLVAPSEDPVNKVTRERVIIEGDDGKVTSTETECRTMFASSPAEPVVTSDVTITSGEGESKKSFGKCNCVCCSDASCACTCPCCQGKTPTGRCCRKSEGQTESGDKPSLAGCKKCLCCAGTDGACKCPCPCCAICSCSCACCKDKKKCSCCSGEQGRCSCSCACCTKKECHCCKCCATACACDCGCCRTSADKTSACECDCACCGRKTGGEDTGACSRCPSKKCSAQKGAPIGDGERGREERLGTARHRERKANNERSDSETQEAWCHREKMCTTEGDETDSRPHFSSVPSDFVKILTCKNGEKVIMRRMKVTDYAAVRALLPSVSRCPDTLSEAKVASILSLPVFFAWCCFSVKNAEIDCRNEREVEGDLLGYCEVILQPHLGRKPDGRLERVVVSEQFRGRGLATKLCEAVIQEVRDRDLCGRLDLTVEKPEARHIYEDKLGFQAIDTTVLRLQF

| Structure (SMILES) | HPLC-MS/MS GNA1 assay (PfGNA1) | HPLC-MS/MS and colorimetric GNA1 assay (TgGNA1) |
| --- | --- | --- |
| CC(=O)SCCNC(=O)CCNC(=O)[C@H](O)C(C)(C)COP(=O)(O)OP(=O)(O)OC[C@H]1O[C@@H](n2cnc3c(N)ncnc32)[C@H](O)[C@@H]1OP(=O)(O)O [AcCoA] | PfGNA1 and TaGNA1 were deficiently expressed, they also showed residual activity as detected by HPLC-MS/MS | The enzymes used GlcN-6P as substrate and AcCoA as donor to produce GlcNAc-6P |
| N[C@H]1C(O)O[C@H](COP(=O)(O)O)[C@@H](O)[C@@H]1O (stereo partly shown) [GlcN-6P] | PfGNA1 and TaGNA1 were deficiently expressed, they also showed residual activity as detected by HPLC-MS/MS | TgGNA1 distinctly acetylated GlcN-6P |
